Experimental data from US8158628B2, “Sulfonylated 1,2,3,4-tetrahydropyrrolo[1,2-a]pyrazine compounds and their use as pharmaceuticals” (Gruenenthal GmbH, priority 2009, dated 2012).

Key:
[1] = target: T1, B1R of the rat (Rattus norvegicus, UniProt P97583); test: FLIPR Ca2+ functional assay, B1R antagonism, rat B1R in CHO K1 cells; type: cell-based; details: test substance 10 μM; rB1R CHO K1 cells; agonist Des-Arg9 bradykinin at EC80; % of maximum achievable inhibition
T1 construct: expressed in transfected cells; host or cells: CHO K1 cells (Chinese hamster ovary), stably transfected
T1 sequence (P97583 1-337): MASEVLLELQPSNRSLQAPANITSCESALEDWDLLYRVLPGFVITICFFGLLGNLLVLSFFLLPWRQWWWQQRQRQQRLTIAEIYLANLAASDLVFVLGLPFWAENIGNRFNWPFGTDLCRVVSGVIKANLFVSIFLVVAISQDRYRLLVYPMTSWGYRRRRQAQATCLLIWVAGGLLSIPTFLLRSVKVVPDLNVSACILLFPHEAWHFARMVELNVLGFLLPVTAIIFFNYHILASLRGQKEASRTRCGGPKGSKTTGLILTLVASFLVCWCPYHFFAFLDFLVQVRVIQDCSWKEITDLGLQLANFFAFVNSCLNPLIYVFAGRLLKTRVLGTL
Procedure, shortened: (§1)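 Stably transfected CHO K1 cells loaded with Fluo-4; Ca2+ fluorescence read on FLIPR (ex 488/em 540 nm). Compound preincubated 10-20 min, then agonist at EC80: Lys-Des-Arg9 bradykinin (human) or Des-Arg9 bradykinin (rat). % inhibition vs maximal inhibition; IC50 from concentration series, n=2-3, N>=2.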

[2] = target: T2, human B1R (Homo sapiens, UniProt P46663); test: FLIPR Ca2+ functional assay, B1R antagonism, human B1R in CHO K1 cells; type: cell-based; details: test substance 10 μM; hB1R CHO K1 cells; agonist Lys-Des-Arg9 bradykinin at EC80; % of maximum achievable inhibition
T2 construct: expressed in transfected cells; host or cells: CHO K1 cells (Chinese hamster ovary), stably transfected
T2 sequence (P46663 1-353): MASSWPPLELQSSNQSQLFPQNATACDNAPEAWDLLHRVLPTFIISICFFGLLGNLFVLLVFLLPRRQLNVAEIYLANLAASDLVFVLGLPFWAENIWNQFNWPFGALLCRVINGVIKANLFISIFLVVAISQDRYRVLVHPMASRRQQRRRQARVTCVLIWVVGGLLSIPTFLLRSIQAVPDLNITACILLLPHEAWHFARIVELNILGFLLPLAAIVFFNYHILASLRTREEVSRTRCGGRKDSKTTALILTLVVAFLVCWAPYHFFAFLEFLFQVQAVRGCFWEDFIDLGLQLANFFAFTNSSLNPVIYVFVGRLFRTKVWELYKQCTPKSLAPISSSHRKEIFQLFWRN
Procedure, shortened: as §1

Row | Structure (SMILES) | inhibition at 10 µM [1] | inhibition at 10 µM [2]
1 | COc1cc(C)c(S(=O)(=O)N2CCn3cccc3C2COCC(=O)N2CCC3(CC2)CCN(c2ccncc2)C3)c(C)c1 (centres unmarked) [Example 4, 2-((2-(4-Methoxy-2,6-dimethylphenylsulfonyl)-1,2,3,4-tetrahydropyrrolo[1,2-a]pyrazin-1-yl)methoxy)-1-(2-(pyridin-4-yl)-2,8-diazaspiro[4.5]decan-8-yl)ethanone] | 104% | 99.8%
2 | Cc1ccc(S(=O)(=O)N2CCn3cccc3C2CC(=O)NC2CCCc3cc(CN(C)C)ccc32)cc1 (centres unmarked) [Example 107, N-[6-(Dimethylaminomethyl)-1,2,3,4-tetrahydro-naphthalen-1-yl]-2-[2-(p-tolylsulfonyl)-1,2,3,4-tetrahydro-pyrrolo[1,2-a]pyrazin-1-yl]-acetamide] | 98.4% | 99.3%
3 | Cc1ccc(S(=O)(=O)N2CCn3cccc3C2CC(=O)NC2CCc3cc(CN(C)C(C)(C)C)ccc3C2)cc1 (centres unmarked) [Example 73, N-[6-[(tert-Butyl-methyl-amino)-methyl]-1,2,3,4-tetrahydro-naphthalen-2-yl]-2-[2-(p-tolylsulfonyl)-1,2,3,4-tetrahydro-pyrrolo[1,2-a]pyrazin-1-yl]-acetamide] | 103% | 99.8%
4 | Cc1ccc(S(=O)(=O)N2CCn3cccc3C2CC(=O)NC2CCc3cc(CN4CCCC4)ccc3C2)cc1Cl (centres unmarked) [Example 49, 2-[2-[(3-Chloro-4-methyl-phenyl)sulfonyl]-1,2,3,4-tetrahydro-pyrrolo[1,2-a]pyrazin-1-yl]-N-[6-(pyrrolidin-1-yl-methyl)-1,2,3,4-tetrahydro-naphthalen-2-yl]-acetamide] | 100% | 99.9%
